These results are taken from patent US9745328B2, “Flap modulators” (JANSSEN PHARMACEUTICA NV, priority 2013, dated 2017).

Structures are written as SMILES. Counter-ions that a name gives are not always drawn. Where only a bound is given, the exact number is not on record here.

The target in this experiment is human FLAP (Homo sapiens (Human), UniProt P20292). The experiment in a line: FLAP binding assay (HTRF format). The following applies: human FLAP wild type. The procedure, abridged: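 HTRF ratio read-out; two independent plates, samples in duplicate on each, values averaged across plates.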
Sequence of human FLAP (P20292 whole entry): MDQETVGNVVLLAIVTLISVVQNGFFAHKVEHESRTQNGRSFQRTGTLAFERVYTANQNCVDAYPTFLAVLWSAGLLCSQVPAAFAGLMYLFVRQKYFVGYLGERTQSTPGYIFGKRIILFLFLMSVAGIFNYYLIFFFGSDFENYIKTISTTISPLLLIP
Background: Time-resolved FRET reads energy transfer from a long-lived donor to a nearby acceptor.

Where [1] appears, read: a calculated value of 0.000 indicates Ki less than 1 nM.

Compound `Nc1cnc(-c2ccc(-c3ccccc3S(=O)(=O)N3CC[C@@H](O)C3)cc2F)cn1` [Example 185, (3R)-1-{[4′-(5-Aminopyrazin-2-yl)-3′-fluoroblphenyl-2-yl]sulfonyl}pyrrolidin-3-ol] gave a Ki (Table 6 (additional runs)) of 9.5 nM.

Turning to `Nc1cnc(-c2ccc(-c3ccccc3SC(F)(F)F)cc2F)cn1` [Example 189, 5-{3-Fluoro-2′-[(trifluoromethyl)-sulfanyl]biphenyl-4-yl}pyrazin-2-amine], the Ki (Table 6 (additional runs)) worked out at 63.2 nM.

`CC(C)(C)Sc1ccccc1-c1ccc(-c2cnc(N)cn2)c(F)c1` [Example 190, 5-[2′-(tert-Butylsulfanyl)-3-fluorobiphenyl-4-yl]pyrazin-2-amine]: the Ki (Table 6 (additional runs)) stood at 66.2 nM.

Turning to `CCCS(=O)(=O)c1ccccc1-c1ccc(-c2cnc(N)cn2)c(F)c1` [Example 192, 5-[3-Fluoro-2′-(propylsulfonyl)biphenyl-4-yl]pyrazin-2-amine], the inhibitory constant (Ki) (Table 6 (additional runs)) turned out to be 48.3 nM.

Compound `CC(C)CS(=O)(=O)c1ccccc1-c1ccc(-c2cnc(N)cn2)c(F)c1` [Example 193, 5-{3-Fluoro-2′-[(2-methylpropyl)sulfonyyl]iphenyl-4-yl}pyrazin-2-amine] came in with a Ki (Table 6 (additional runs)) of 30.9 nM.

For `CC(C)(C)S(=O)(=O)c1ccccc1-c1ccc(-c2cnc(N)cn2)c(F)c1` [Example 194, 5-[2′-(tert-Butylsulfonyl)-3-fluorobiphenyl-4-yl]pyrazin-2-amine], the Ki (Table 6 (additional runs)) was 156 nM.

As for `Nc1cnc(-c2ccc(-c3ccccc3S(=O)(=O)C3CC3)cc2F)cn1` [Example 197, 5-[2′-(Cyclopropylsulfonyl)-3-fluorobiphenyl-4-yl]pyrazin-2-amine], affinity (Table 6 (additional runs)) was put at a Ki of 7.1 nM.

The compound `Nc1cnc(-c2ccc(-c3ccccc3SCCNC(=O)c3ccccc3)cc2F)cn1` [Example 204, N-(2-{[4′-(5-Aminopyrazin-2-yl)-3′-fluorobiphenyl-2-yl]sulfanyl}ethyl)benzamide] came in with a Ki (Table 6 (additional runs)) of 4.5 nM.

Take `CNS(=O)(=O)c1cc(C(F)(F)F)ccc1-c1ccc(-c2cnc(N)cn2)c(F)c1` [Example 208, 4′-(5-Aminopyrazin-2-yl)-3′-fluoro-N-methyl-4-(trifluoromethyl)biphenyl-2-sulfonamide]: the affinity (Table 6 (additional runs)) corresponds to a Ki of 0.4 nM and the inhibition constant Ki under setting [1] was < 1 nM.

As for `Nc1cnc(-c2ccc(-c3ccc(C(F)(F)F)cc3S(=O)(=O)NCCO)cc2F)cn1` [Example 210, 4′-(5-aminopyrazin-2-yl)-3′-fluoro-N-(2-hydroxyethyl)-4-(trifluoromethyl)biphenyl-2-sulfonamide], the Ki was 0.4 nM (Table 6 (additional runs)) and < 1 nM under setting [1].

As to `CCNS(=O)(=O)c1cc(C(F)(F)F)ccc1-c1ccc(-c2cnc(N)cn2)c(F)c1` [Example 211, 4′-(5-Aminopyrazin-2-yl)-N-ethyl-3′-fluoro-4-(trifluoromethyl)biphenyl-2-sulfonamide], under “Table 6 (additional runs)”, affinity was put at a Ki of 0.5 nM.

Turning to `Nc1cnc(-c2ccc(-c3ccccc3Sc3ncccn3)cc2F)cn1` [Example 213, 5-[3-Fluoro-2′-(pyrimidin-2-ylsulfanyl)biphenyl-4-yl]pyrazin-2-amine hydrochloride], for the setting “Table 6 (additional runs)”, the inhibition constant Ki is 2.4 nM.

The compound `Nc1cnc(-c2ccc(-c3ccccc3Sc3cc(N)ncn3)cc2F)cn1` [Example 215, 6-{[4′-(5-Aminopyrazin-2-yl)-3′-fluorobiphenyl-2-yl]sulfanyl}pyrimidin-4-amine hydrochloride] registered a Ki (Table 6 (additional runs)) of 2.4 nM.

In the case of `Nc1cnc(-c2ccc(-c3ccccc3Sc3nccc(N)n3)cc2F)cn1` [Example 216, 2-{1,4′-(5-Aminopyrazin-2-yl)-3′-fluorobiphenyl-2-yl]sulfanyl}pyrimidin-4-amine hydrochloride], affinity (Table 6 (additional runs)) was put at a Ki of 2.2 nM.

As to `Nc1cnc(-c2ccc(-c3ccccc3Sc3ncncc3N)cc2F)cn1` [Example 217, 4-{[4′-(5-Aminopyrazin-2-yl)-3′-fluorobiphenyl-2-yl]sulfanyl}pyrimidin-5-amine hydrochloride], the Ki (Table 6 (additional runs)) was 1.2 nM.

Under “Table 6 (additional runs)”, `Nc1cnc(-c2ccc(-c3ccccc3Sc3cnccn3)cc2F)cn1` [Example 218, 5-[3-Fluoro-2′-(pyrazin-2-ylsulfanyl)biphenyl-4-yl]pyrazin-2′ amine hydrochloride] returned a Ki of 3.3 nM.

For the compound `C[C@H](O)CNS(=O)(=O)Cc1ccccc1-c1ccc(-c2cnc(N)cn2)c(F)c1` [Example 227, (S)-1-[4′-(5-Aminopyrazin-2-yl)-3′-fluorobiphenyl-2-yl]-N-[(2S)-2-hydroxypropyl]methanesulfonamide hydrochloride], under “Table 6 (additional runs)”, the Ki amounted to 670 nM.

In the case of `C[C@@H](O)CNS(=O)(=O)Cc1ccccc1-c1ccc(-c2cnc(N)cn2)c(F)c1` [Example 228, (R)-1-[4′-(5-Aminopyrazin-2-yl)-3′-fluorobiphenyl-2-yl]-N-[(2S)-2-hydroxypropyl]methanesulfonamide], the Ki (Table 6 (additional runs)) turned out to be 1060 nM.

Compound `Nc1cnc(-c2ccc(-c3ccccc3CS(=O)(=O)N3CCC(N)CC3)cc2F)cn1` [Example 229, 5-(2′-{[(4-Aminopiperidin.-1-yl)sulfonyl]methyl}-3-fluorobiphenyl-4-yl)pyrazin-2-amine hydrochloride] had an inhibition constant (Ki) (Table 6 (additional runs)) of 1070 nM.

The compound `Nc1cnc(-c2ccc(-c3ccccc3CSc3ccc(N)nn3)cc2F)cn1` [Example 240, 6-(((4′-(5-aminopyrazin-2-yl)-3′-fluoro-[1,1′-biphenyl]-2-yl)methyl)thio)pyridazin-3-amine hydrochloride] displayed an inhibitory constant (Ki) (Table 6 (additional runs)) of 2.4 nM.

`Nc1cnc(-c2ccc(-c3ccccc3Sc3ccnc(N)n3)cc2F)cn1` [Example 242, 4-{[4′(5-Aminopyrazin-2-yl)-3′-fluorobiphenyl-2-yl]sulfanyl}pyrimidin-2-amine hydrochloride]: under “Table 6 (additional runs)”, the affinity corresponds to a Ki of 0.7 nM.

`Nc1cnc(-c2ccc(-c3ccccc3CSc3ccncn3)cc2F)cn1` [Example 243, 5-(3-fluoro-2′-((pyrimidin-4-ylthio)methyl)-[1,1′-biphenyl]-4-yl)pyrazin-2-amine hydrochloride] returned a Ki (Table 6 (additional runs)) of 3.3 nM.

Take `CC[C@@H](CO)NS(=O)(=O)c1ccccc1-c1ccc(-c2cnc(N)nc2)c(F)c1` [Example 248, 4′-(2-Aminopyrimidin-5-yl)-3′-fluoro-N-[(1S)-1-(hydroxymethyl)propyl]biphenyl-2-sulfonamide]: affinity (Table 6 (additional runs)) was put at a Ki of 56.8 nM.

Take `CC(C)(CO)CNS(=O)(=O)c1ccccc1-c1ccc(-c2cnc(N)nc2)c(F)c1` [Example 251, 4′-(2-Aminopyrimidin-5-yl)-3′-fluoro-N-(3-hydroxy-2,2-dimethylpropyl)biphenyl-2-sulfonamide]: for the setting “Table 6 (additional runs)”, the affinity, expressed as Ki, was 4.5 nM.

For the setting “Table 6 (additional runs)”, `CC(CO)(CO)NS(=O)(=O)c1ccccc1-c1ccc(-c2cnc(N)nc2)c(F)c1` [Example 255, 4′-(2-Aminopyrimidin-5-yl)-3′-fluoro-N-[2-hydroxy-1-(hydroxymethyl)-1-methylethyl]biphenyl-2-sulfonamide] returned an inhibitory constant (Ki) of 8.1 nM.

`CC(C)N(CCO)S(=O)(=O)c1ccccc1-c1ccc(-c2cnc(N)nc2)c(F)c1` [Example 261, 4′-(2-Aminopyrimidin-5-yl)-3′-fluoro-N-(2-hydroxyethyl)-N-(1-methylethyl)biphenyl-2-sulfonamide] registered a Ki (Table 6 (additional runs)) of 5.6 nM.

Under “Table 6 (additional runs)”, `Nc1ncc(-c2ccc(-c3ccccc3S(=O)(=O)N[C@H]3CCNC3=O)cc2F)cn1` [Example 263, 4′-(2-Aminopyrimidin-5-yl)-3′-fluoro-N-[(3S)-2-oxopyrrolidin-3-yl]biphenyl-2-sulfonamide] showed a Ki of 127 nM.

With `Nc1ncc(-c2ccc(-c3ccccc3S(=O)(=O)N3CC(O)C3)cc2F)cn1` [Example 265, 1-{[4′-(2-Aminopyrimidin-5-yl)-3′-fluorobiphenyl-2-yl]sulfonyl}azetidin-3-ol trifluoroacetic acid salt], the inhibition constant (Ki) (Table 6 (additional runs)) stood at 35.5 nM.

In turn, `Nc1ncc(-c2ccc(-c3ccccc3S(=O)(=O)N[C@@H]3CCCNC3=O)cc2F)cn1` [Example 266, 4′-(2-Aminopyrimidin-5-yl)-3′-fluoro-N-[(3R)-2-oxopiperidin-3-yl]biphenyl-2-sulfonamide trifluoroacetic acid salt] came in with a Ki (Table 6 (additional runs)) of 133 nM.

Compound `Nc1ncc(-c2ccc(-c3ccccc3S(=O)(=O)N[C@H]3CCCNC3=O)cc2F)cn1` [Example 267, 4′-(2-Aminopyrimidin-5-yl)-3′-fluoro-N-[(3S)-2-oxopiperidin-3-yl]biphenyl-2-sulfonamide trifluoroacetic acid salt] yielded an inhibitory constant (Ki) (Table 6 (additional runs)) of 185 nM.

The compound `CC(C)(O)CNS(=O)(=O)c1ccccc1-c1ccc(-c2cnc(N)nc2)c(F)c1` [Example 272, 4′-(2-Aminopyrimidin-5-y)-3′-fluoro-N-(2-hydroxy-2-methylpropyl)biphenyl-2-sulfonamide trifluoroacetic acid salt] gave an inhibition constant Ki (Table 6 (additional runs)) of 26.9 nM.

On to `CC(C)(CO)NS(=O)(=O)c1ccccc1-c1ccc(-c2cnc(N)nc2)c(F)c1` [Example 280, 4′-(2-.Aminopyrimidin-5-yl)-3′-fluoro-N-(2-hydroxy-1,1-dimethylethyl)biphenyl-2-sulfonamide trifluoroacetic acid salt], for which the affinity (Table 6 (additional runs)) corresponds to a Ki of 3.3 nM.

Take `Nc1ncc(-c2ccc(-c3ccccc3S(=O)(=O)N3CCN(C4CC4)CC3)cc2F)cn1` [Example 281, 5-{2′-[(4-Cyclopropylpiperazin-1-yl)sulfonyl]-3-fluorobiphenyl-4-yl}pyrimidin-2-amine trifluoroacetic acid salt]: the Ki (Table 6 (additional runs)) was determined as 60.8 nM.

Under “Table 6 (additional runs)”, `Nc1ncc(-c2ccc(-c3ccccc3S(=O)(=O)Nc3ccccc3)cc2F)cn1` [Example 285, 4′-(2-Aminopyrimidin-5-yl)-3′-fluoro-N-phenylbiphenyl-2-sulfonamide trifluoroacetic acid salt] showed a Ki of 3.3 nM.

On to `Cc1cccc(-c2ccc(-c3cnc(N)nc3)c(F)c2)c1S(=O)(=O)NC(C)(C)C` [Example 287, 4′-(2-Aminopyrimidin-5-yl)-N-tert-butyl-3′-fluoro-3-methylbiphenyl-2-sulfonamide trifluoroacetic acid salt], for which, for the setting “Table 6 (additional runs)”, affinity was put at a Ki of 8.5 nM.

The compound `Nc1ncc(-c2ccc(-c3ccccc3S(=O)(=O)N[C@@H](c3ccccc3)C(F)(F)F)cc2F)cn1` [Example 292, 4′-(2-Aminopyrimidin-5-yl)-3′-fluoro-N-[(1S)-2,2,2-trifluoro-1-phenylethyl]biphenyl-2-sulfonamide trifluoroacetic acid salt] yielded a Ki (Table 6 (additional runs)) of 9.9 nM.

In general, Ki refers to the equilibrium dissociation constant of an inhibitor or competing ligand from its target.
